Experiments:
Assay type in all cases: cell-based
[1] = system: Staphylococcus aureus ATCC 6538 P LRP 39; assay: Bacteriostatic power in liquid medium (MIC); details: liquid medium
Excerpt: (§1) the bacteriostatic power, expressed as the minimum inhibiting concentration (MIC) against both aerobic and anaerobic, Gram positive and Gram negative, bacterial stocks: the related results are reported in the tables 2 and 3.

[2] = system: Streptococcus pneumoniae ATCC 6303 LRP 35; assay: Bacteriostatic power in liquid medium (MIC); details: liquid medium
Excerpt: as §1

[3] = system: Streptococcus pyogenes ATCC 8668 LRP 34; assay: Bacteriostatic power in liquid medium (MIC); details: liquid medium
Excerpt: as §1

[4] = system: Streptococcus faecalis subs. zymogenes ATCC 12958 LRP 61; assay: Bacteriostatic power in liquid medium (MIC); details: liquid medium
Excerpt: as §1

[5] = system: Corynebacterium diphteriae LRP 24; assay: Bacteriostatic power in liquid medium (MIC); details: liquid medium
Excerpt: as §1

[6] = system: Mycoplasma hominis I ATCC 14027 LRP 211; assay: Bacteriostatic power in solid medium (MIC); details: solid medium
Excerpt: as §1

[7] = system: Klelsiella pneumoniae LRP 54; assay: Bacteriostatic power in solid medium (MIC); details: solid medium
Excerpt: as §1

[8] = system: Streptococcus pneumoniae ATCC 6303 LRP 53; assay: Bacteriostatic power in solid medium (MIC); details: solid medium
Excerpt: as §1

[9] = system: Haemophilus influenzae ATCC 19418 LRP 213; assay: Bacteriostatic power in solid medium (MIC); details: solid medium
Excerpt: as §1

[10] = system: Streptococcus pneumoniae ATCC 6303 LRP 35; assay: Bacteriostatic power in solid medium (MIC); details: solid medium
Excerpt: as §1

[11] = system: Micrococcus luteus ATCC 9341 LRP 6; assay: Bacteriostatic power in solid medium (MIC); details: solid medium
Excerpt: as §1

[12] = system: Streptococcus faecalis subsp. zymogenes ATCC 12958 LRP 61; assay: Bacteriostatic power in solid medium (MIC); details: solid medium
Excerpt: as §1

[13] = system: Acholeplasma laidlawii ATCC 23206 LRP 204; assay: Bacteriostatic power in solid medium (MIC); details: solid medium
Excerpt: as §1

[14] = system: Fusobacteriumnecrophroum ATCC 27852 LRP 210; assay: Bacteriostatic power in solid medium (MIC); details: solid medium; anaerobic
Excerpt: as §1

[15] = system: Streptococcus faecalis LRP 7; assay: Bacteriostatic power in solid medium (MIC); details: solid medium
Excerpt: as §1

[16] = system: Staphylococcus aureus ATCC 6538P LRP 14; assay: Bacteriostatic power in solid medium (MIC); details: solid medium; Penycilline resistant
Excerpt: as §1

[17] = system: Proteus vulgaris ATCC 6380 LRP 13; assay: Bacteriostatic power in solid medium (MIC); details: solid medium
Excerpt: as §1

[18] = system: Staphylococcus aureus ATCC 14154 LRP 78; assay: Bacteriostatic power in solid medium (MIC); details: solid medium; Erythromycin resistant
Excerpt: as §1

Bacillus subtilis LRP 25 = assay: Bacteriostatic power in solid medium (MIC); details: solid medium
Excerpt: as §1

[19] = system: Pseudomonas aeruginosa LRP 9; assay: Bacteriostatic power in solid medium (MIC); details: solid medium
Excerpt: as §1

[20] = system: Streptococcus pneumoniae ATCC 6303 LRP 52; assay: Bacteriostatic power in solid medium (MIC); details: solid medium
Excerpt: as §1

[21] = system: Streptococcus pyogenes ATCC 8668 LRP 34; assay: Bacteriostatic power in solid medium (MIC); details: solid medium
Excerpt: as §1

[22] = system: Streptococcus pyogenes ATCC 8668 LRP 197; assay: Bacteriostatic power in solid medium (MIC); details: solid medium
Excerpt: as §1

Escherichia coli LRP 50 = assay: Bacteriostatic power in solid medium (MIC); details: solid medium
Excerpt: as §1

[23] = system: Bacteroides fragilis ATCC 23745 LRP 205; assay: Bacteriostatic power in solid medium (MIC); details: solid medium; anaerobic
Excerpt: as §1

[24] = system: Staphylococcus aureus ATCC 6538P LRP 39; assay: Bacteriostatic power in solid medium (MIC); details: solid medium
Excerpt: as §1

[25] = system: Micrococcus luteus ATCC 15957 LRP 193; assay: Bacteriostatic power in solid medium (MIC); details: solid medium; Erythromycin resistant
Excerpt: as §1

[26] = system: Corynebacterium diphteriae LRP 24; assay: Bacteriostatic power in solid medium (MIC); details: solid medium
Excerpt: as §1

[27] = system: Neisseria gonorrhoeae ATCC 19424 LRP 214; assay: Bacteriostatic power in solid medium (MIC); details: solid medium
Excerpt: as §1

Q: Which Minimum inhibiting concentration [1] does the source give for “(8S)-8-fluoroerythromycin A carbonate [P80206 carbonate]” here?
A: The Minimum inhibiting concentration was 0.39 µg/mL.

Q: What about the Minimum inhibiting concentration [2] of the same substance?
A: The Minimum inhibiting concentration was 0.049 µg/mL.

Q: What about the Minimum inhibiting concentration [3] of the same substance?
A: The Minimum inhibiting concentration was 0.024 µg/mL.

Q: What about the Minimum inhibiting concentration [4] of the same substance?
A: The Minimum inhibiting concentration was 0.195 µg/mL.

Q: What about the Minimum inhibiting concentration [5] of the same substance?
A: The Minimum inhibiting concentration was 0.024 µg/mL.

Q: And the Minimum inhibiting concentration [6]?
A: Its Minimum inhibiting concentration is 25 µg/mL.

Q: What about the Minimum inhibiting concentration [7] of the same substance?
A: Its Minimum inhibiting concentration is 12.5 µg/mL.

Q: And the Minimum inhibiting concentration [8]?
A: The Minimum inhibiting concentration was 0.012 µg/mL.

Q: And the Minimum inhibiting concentration [9]?
A: The Minimum inhibiting concentration was 6.25 µg/mL.

Q: What about the Minimum inhibiting concentration [10] of the same substance?
A: Its Minimum inhibiting concentration is 0.012 µg/mL.

Q: And the Minimum inhibiting concentration [11]?
A: Its Minimum inhibiting concentration is 0.024 µg/mL.

Q: What about the Minimum inhibiting concentration [12] of the same substance?
A: The Minimum inhibiting concentration was 0.097 µg/mL.

Q: And the Minimum inhibiting concentration [13]?
A: The Minimum inhibiting concentration was 0.195 µg/mL.

Q: What about the Minimum inhibiting concentration [14] of the same substance?
A: Its Minimum inhibiting concentration is 6.25 µg/mL.

Q: And the Minimum inhibiting concentration [15]?
A: Its Minimum inhibiting concentration is 0.097 µg/mL.

Q: And the Minimum inhibiting concentration [16]?
A: Its Minimum inhibiting concentration is 0.097 µg/mL.

Q: What about the Minimum inhibiting concentration [17] of the same substance?
A: The Minimum inhibiting concentration was 25 µg/mL.

Q: What about the Minimum inhibiting concentration [18] of the same substance?
A: Its Minimum inhibiting concentration is 25 µg/mL.

Q: And the Minimum inhibiting concentration (Bacillus subtilis LRP 25)?
A: The Minimum inhibiting concentration was 0.049 µg/mL.

Q: What about the Minimum inhibiting concentration [19] of the same substance?
A: Its Minimum inhibiting concentration is 25 µg/mL.

Q: What about the Minimum inhibiting concentration [20] of the same substance?
A: Its Minimum inhibiting concentration is 0.012 µg/mL.

Q: What about the Minimum inhibiting concentration [21] of the same substance?
A: The Minimum inhibiting concentration was 0.012 µg/mL.

Q: And the Minimum inhibiting concentration [22]?
A: The Minimum inhibiting concentration was 0.024 µg/mL.

Q: What about the Minimum inhibiting concentration (Escherichia coli LRP 50) of the same substance?
A: The Minimum inhibiting concentration was 3.12 µg/mL.

Q: And the Minimum inhibiting concentration [23]?
A: Its Minimum inhibiting concentration is 0.78 µg/mL.

Q: And the Minimum inhibiting concentration [24]?
A: Its Minimum inhibiting concentration is 0.097 µg/mL.

Q: And the Minimum inhibiting concentration [25]?
A: Its Minimum inhibiting concentration is 25 µg/mL.

Q: And the Minimum inhibiting concentration [26]?
A: The Minimum inhibiting concentration was 0.024 µg/mL.

Q: What about the Minimum inhibiting concentration [27] of the same substance?
A: Its Minimum inhibiting concentration is 0.049 µg/mL.

Source: US4439426A, “Semisynthetic macrolidic antibiotics, intermediate compounds for their preparation and related pharmaceutical compositions containing them” (priority 1981, dated 1984)
